Measurements as given in patent US3940413A, “1-Ethyl-imidazoles” (Bayer Aktiengesellschaft, priority 1972, dated 1976).
In brackets after ≈: the same amount, converted by molar mass.

How the values were obtained:
Assay in all cases: antimycotic action spectrum in vitro, series dilution test
Assay type in all cases: cell-based
Penicillium commune = settings: in nutrient medium, 28°C, 24 to 96 hours; for MIC: Penicillium commune, read-out: Minimum inhibitory concentration, Penicillium commune
Method: (§1) Determination of the anti-mycotic action spectrum in vitro by the series dilution test.
(§2) The nutrient substrates used were, for dermatophytes and moulds, Sabourauds' test medium, and, for blastomyces and biphase fungi, meat broth-glucose bouillon.
(§3) The incubation temperature was 28°C and the incubation time was 24 to 96 hours.

Candida albicans = settings: in nutrient medium, 28°C, 24 to 96 hours; for MIC: Candida albicans, read-out: Minimum inhibitory concentration, Candida albicans
Method: as §1, §2, §3

Aspergillus niger = settings: in nutrient medium, 28°C, 24 to 96 hours; for MIC: Aspergillus niger, read-out: Minimum inhibitory concentration, Aspergillus niger
Method: as §1, §2, §3

[1] = system: Trichophyton mentagrophytes; settings: in nutrient medium, Sabourauds' test medium, 28°C, 24 to 96 hours; for MIC: Trichophyton mentagrophytes, read-out: Minimum inhibitory concentration, Trichophyton mentagrophytes
Method: as §1, §2, §3

Row | Compound | MIC (Penicillium commune) | MIC (Candida albicans) | MIC (Aspergillus niger) | MIC [1] | Minimum inhibitory concentration, Penicillium commune (Penicillium commune) | Minimum inhibitory concentration, Candida albicans (Candida albicans) | Minimum inhibitory concentration, Aspergillus niger (Aspergillus niger) | Minimum inhibitory concentration, Trichophyton mentagrophytes [1]
1 | CC(C)(C)C(=O)C(Cn1ccnc1)Oc1ccccc1Cl (centres unmarked) [Example 8, 2-(2-chlorophenoxy)-1-imidazolyl-(1)-4,4-dimethyl-pentan-3-one] | 16 µg/mL (≈ 52.2 µM) | 4 µg/mL (≈ 13 µM) | 4 µg/mL (≈ 13 µM) | 8 µg/mL (≈ 26.1 µM) |  |  |  | 
2 | CC(C)(C)C(=O)C(Cn1ccnc1)Oc1ccc(Br)cc1 (centres unmarked) [Example 6, 2-(4-bromophenoxy)-1-imidazolyl-(1)-4,4-dimethyl-pentan-3-one] | 16 µg/mL (≈ 45.6 µM) | 4 µg/mL (≈ 11.4 µM) | 4 µg/mL (≈ 11.4 µM) | 8 µg/mL (≈ 22.8 µM) |  |  |  | 
3 | CC(C)(C)C(=O)C(Cn1ccnc1)Oc1cc(Cl)c(Cl)cc1Cl (centres unmarked) [Example 10, 2-(2,4,5-trichlorophenoxy)-1-imidazolyl-(1)-4,4-dimethyl-pentan-3-one] | 16 µg/mL (≈ 42.6 µM) | 4 µg/mL (≈ 10.6 µM) | 4 µg/mL (≈ 10.6 µM) | 4 µg/mL (≈ 10.6 µM) |  |  |  | 
4 | CC(C)(C)C(=O)C(Cn1ccnc1)Oc1cccc(Cl)c1 (centres unmarked) [Example 9, 2-(3-chlorophenoxy)-1-imidazolyl-(1)-4,4-dimethyl-pentan-3-one] | 16 µg/mL (≈ 52.2 µM) | 4 µg/mL (≈ 13 µM) | 4 µg/mL (≈ 13 µM) | 4 µg/mL (≈ 13 µM) |  |  |  | 
5 | Cc1cc(Cl)ccc1OC(Cn1ccnc1)C(=O)C(C)(C)C (centres unmarked) [Example 12] | 8 µg/mL (≈ 24.9 µM) | 4 µg/mL (≈ 12.5 µM) | 8 µg/mL (≈ 24.9 µM) | < 1 µg/mL |  |  |  | 
6 | CC(C)(C)C(=O)C(Cn1ccnc1)Oc1ccccc1-c1ccccc1 (centres unmarked) [Example 13, 2-(2-phenylphenoxy)-1-imidazolyl-(1)-4,4-dimethyl-pentan-3-one] | 16 µg/mL (≈ 45.9 µM) | 4 µg/mL (≈ 11.5 µM) | 8 µg/mL (≈ 23 µM) | 8 µg/mL (≈ 23 µM) |  |  |  | 
7 | CC(C)(C)C(=O)C(Cn1ccnc1)Oc1ccc(-c2ccccc2)cc1 (centres unmarked) [Example 14, 2-(4-phenylphenoxy)-1-imidazolyl-(1)-4,4-dimethyl-pentan-3-one] | 8 µg/mL (≈ 23 µM) | 4 µg/mL (≈ 11.5 µM) | 8 µg/mL (≈ 23 µM) | < 1 µg/mL |  |  |  | 
8 | CC(C)(C)C(=O)C(Cn1ccnc1)Oc1ccc(Cl)cc1 (centres unmarked) [Example 4, 2-(4-chlorophenoxy)-1-imidazolyl-(1)-4,4-dimethyl-pentan-3-one] |  |  |  |  | 32 µg/mL (≈ 104 µM) | 4 µg/mL (≈ 13 µM) | 4 µg/mL (≈ 13 µM) | 4 µg/mL (≈ 13 µM)
9 | CC(C)(C)C(=O)C(Cn1ccnc1)Oc1ccc(Cl)cc1Cl (centres unmarked) [Example 5, 2-(2,4-dichlorophenoxy)-1-imidazolyl-(1)-4,4-dimethyl-pentan-3-one] | 16 µg/mL (≈ 46.9 µM) | 4 µg/mL (≈ 11.7 µM) | 4 µg/mL (≈ 11.7 µM) | < 1 µg/mL |  |  |  | 
10 | CC(C)(C)C(=O)C(Cn1ccnc1)Oc1ccc(F)cc1 (centres unmarked) [Example 7, 2-(4-fluorophenoxy)-1-imidazolyl-(1)-4,4-dimethyl-pentan-3-one] | 32 µg/mL (≈ 110 µM) | 4 µg/mL (≈ 13.8 µM) | 4 µg/mL (≈ 13.8 µM) | 8 µg/mL (≈ 27.6 µM) |  |  |  | 
11 | CC(C)(C)C(=O)C(Cn1ccnc1)Oc1ccc(Cl)cc1 (centres unmarked) [Example 1, 2-(4-chlorophenoxy)-1-imidazolyl-(1)-4,4-dimethyl-pentan-3-one] | 32 µg/mL (≈ 104 µM) | 4 µg/mL (≈ 13 µM) | 8 µg/mL (≈ 26.1 µM) | 4 µg/mL (≈ 13 µM) |  |  |  | 
